The values that follow come from patent US11571426B2, “Compositions for preventing or treating lupus” (CHONG KUN DANG PHARMACEUTICAL CORP., priority 2017, dated 2023).

For experiment [1], the system named is TNFα secretion in LPS-stimulated human monocyte cell lines (THP-1). The experiment in a line: Suppression of TNFα secretion in LPS-stimulated THP-1 (ELISA). As to conditions: at both 100 nM and 300 nM. In kind it is cell-based. Here is the method: To identify the efficacy of the inventive compounds on suppressing a TNFα secretion in immune responses, suppression of TNFα production, which was achieved by a treatment with compounds 374, 461, 500, 530 and 532 according to the present invention in LPS-stimulated human monocyte cell lines (THP-1), was quantified by means of an enzyme immuno-assay (ELISA).
Specifically, the THP-1 cell lines (ATCC) were cultured in an RPMI-1640 medium comprising 10% FBS. The cell lines were divided into a 24 well plate at a ratio of 1×10^5 cells per well, then treated with 100 ng/mL PMA (phorbol 12-myristate 13-acetate) for 24 hours, and then differentiated into macrophage. Then, the culture medium was replaced with a new one, then treated with a test drug for 24 hours, and then treated again with 10 ng/mL LPS (E. Coli, O55:B5) for four hours for stimulation. After that, supernatant was taken and used to measure the amount of TNFα secreted from the cells by means of a Human TNFα Instant ELISA kit (eBioscience, BMS223INST) according to a protocol provided by a manufacturer.
A general note: ELISA stands for enzyme-linked immunosorbent assay.

The next experiment deals with NZB/W F1 female mice. Nature of the experiment: Weight recovery in SLE model mouse. In kind it is in vivo. Here is the method:
80 NZB/W F1 female mice (four weeks old) were purchased from Jackson Laboratory and maintained in an SPF breeding room with five mice per cage. Their weight and urine protein were measured at 24 weeks after birth (right before administration), and then all the animals except those having too much urine protein were divided into groups as shown in a table 2 below such that the urine protein and weight might be evenly distributed among the groups.
Then, the mice were administered as described in the table 2 once a day for about 19 weeks from 24 weeks after birth to 42 weeks after birth.

As to `O=C(NO)c1ccc(CN(C(=O)N2CCOCC2)c2cccc(C(F)(F)F)c2)cc1` [Compound 374, N-(4-(hydroxycarbamoyl)benzyl)-N-(3-(trifluoromethyl)phenyl)morpholine-4-carboxamide], in experiment [1], the “level of TNFα secretion” value was “remarkably decreased”. Besides, in the experiment with NZB/W F1 female mice (10 mg/kg dosed group, from about 40 weeks), the weight entry was “recovered to the same level as that of the positive control group”. In addition, the weight recovery entry in the experiment on NZB/W F1 female mice (30 and 50 mg/kg dosed groups, vs positive control) is reported as “more excellent weight recovery effect”.
